According to patent publication US9029325B2, “Amylin analogues and pharmaceutical compositions thereof” (Novo Nordisk A/S, priority 2011, dated 2015):
Starred links: 1 amine or outer side, 2 acyl side, 3 side chain; linkers in the order of their positions; H or OH if unused. Positions of bridges follow the written chain, without caps; N, C: chain ends. Residues, ends and D or L forms follow the SMILES beside them. *: point of attachment. C20 diacid = O=C(O)CCCCCCCCCCCCCCCCCCC(=O)*; C18 diacid = O=C(O)CCCCCCCCCCCCCCCCC(=O)*; γGlu = O=C(O)[C@H](CCC(=O)[*:2])N[*:1]

Assay: Assay (I) efficacy testing on appetite (food intake), ad libitum fed rat model
Type: in vivo, Sprague Dawley (SD) rats
Source text: Sprague Dawley (SD) rats from Taconic Europe, Denmark are used for the experiments. The rats have a body weight 200-250 g at the start of experiment. The rats arrive at least 10-14 days before start of experiment to allow acclimatization to experimental settings. During this period the animals are handled at least 2 times. After arrival rats are housed individually for one week in a reversed light/dark phase (meaning that lights are off during daytime and on during nighttime) […]. Since rats are normally active and eat their major part of their daily food intake during the dark period, rats are dosed in the morning right before lights are turned off. This set-up results in the lowest data variation and highst test sensitivity. The experiment is conducted in the rats' home cages and rats have free access to food and water througout the acclimatization period and the experiment period. Each dose of derivative is tested in a group of 5-8 rats. A vehicle group of 6-8 rats is included in each set of testing. Rats are dosed once according to body weight with a 0.01-3 mg/kg solution administered intraperitoneally (ip), orally (po) or subcutaneously (sc). The time of dosing is recorded for each group. After dosing, the rats are returned to their home cages, where they then have access to food and water. The food consumption is recorded individually continuously by on-line registration or manually every hour for 7 hours, and then after 24 h and sometimes 48 h. At the end of the experimental session, the animals are euthanised.
The individual data are recorded in Microsoft excel sheets. Outliers are excluded after applying the Grubbs statistical evaluation test for outliers, and the result is presented graphically using the GraphPad Prism program.

SMILES | Food intake reduction 0-24 h 3 nmol/kg (%) (0-24 h) | Food intake reduction 24-48 h 3 nmol/kg (%) (24-48 h) | Food intake reduction 0-24 h 30 nmol/kg (%) (30 nmol/kg, 0-24 h) | Food intake reduction 24-48 h 30 nmol/kg (%) (30 nmol/kg, 24-48 h)
CC[C@H](C)[C@H](NC(=O)[C@@H]1CCCN1C(=O)CNC(=O)[C@H](Cc1ccccc1)NC(=O)[C@H](CC(N)=O)NC(=O)[C@H](CC(N)=O)NC(=O)[C@H](CO)NC(=O)[C@H](CO)NC(=O)[C@H](CCCNC(=N)N)NC(=O)[C@H](Cc1c[nH]cn1)NC(=O)[C@H](CC(C)C)NC(=O)[C@H](Cc1ccccc1)NC(=O)[C@H](CCC(=O)O)NC(=O)[C@H](C)NC(=O)[C@H](CC(C)C)NC(=O)[C@H](CCCNC(=N)N)NC(=O)[C@H](CCC(N)=O)NC(=O)[C@@H](NC(=O)[C@H](C)NC(=O)[C@@H]1CSSC[C@H](NC(=O)[C@H](CCC(=O)O)NC(=O)CC[C@H](NC(=O)CCCCCCCCCCCCCCCCCCC(=O)O)C(=O)O)C(=O)N[C@@H](CC(N)=O)C(=O)N[C@@H]([C@@H](C)O)C(=O)N[C@@H](C)C(=O)N[C@@H]([C@@H](C)O)C(=O)N1)[C@@H](C)O)C(=O)N[C@@H](CC(C)C)C(=O)N1CCC[C@H]1C(=O)N1CCC[C@H]1C(=O)N[C@H](C(=O)N[C@@H](CC(N)=O)C(=O)N[C@H](C(=O)NCC(=O)N[C@@H](CO)C(=O)N[C@@H](CC(N)=O)C(=O)N[C@H](C(=O)N1CCC[C@H]1C(N)=O)[C@@H](C)O)C(C)C)[C@@H](C)O [Example 10, N-alpha-[(S)-4-Carboxy-4-(19-carboxynonadecanoylamino)butyryl]-[Glu1, Glu14, His17, Arg18, Pro37]-pramlintide] ({C20 diacid-γGlu}-ECNTATCATQRLAEFLHRSSNNFGPILPPTNVGSNTP-NH2; disulfide 2-7) | 50 | 40 | – | –
CC[C@H](C)[C@H](NC(=O)[C@@H]1CCCN1C(=O)CNC(=O)[C@H](Cc1ccccc1)NC(=O)[C@H](CC(N)=O)NC(=O)[C@H](CC(N)=O)NC(=O)[C@H](CO)NC(=O)[C@H](CO)NC(=O)[C@H](Cc1c[nH]cn1)NC(=O)[C@H](Cc1c[nH]cn1)NC(=O)[C@H](CC(C)C)NC(=O)[C@H](Cc1ccccc1)NC(=O)[C@H](CCC(=O)O)NC(=O)[C@H](C)NC(=O)[C@H](CC(C)C)NC(=O)[C@H](CCCNC(=N)N)NC(=O)[C@H](CCC(N)=O)NC(=O)[C@@H](NC(=O)[C@H](C)NC(=O)[C@@H]1CSSC[C@H](NC(=O)[C@H](Cc2c[nH]cn2)NC(=O)[C@H](Cc2c[nH]cn2)NC(=O)[C@H](Cc2c[nH]cn2)NC(=O)CC[C@H](NC(=O)CCCCCCCCCCCCCCCCCCC(=O)O)C(=O)O)C(=O)N[C@@H](CC(N)=O)C(=O)N[C@@H]([C@@H](C)O)C(=O)N[C@@H](C)C(=O)N[C@@H]([C@@H](C)O)C(=O)N1)[C@@H](C)O)C(=O)N[C@@H](CC(C)C)C(=O)N1CCC[C@H]1C(=O)N1CCC[C@H]1C(=O)N[C@H](C(=O)N[C@@H](CC(N)=O)C(=O)N[C@H](C(=O)NCC(=O)N[C@@H](CO)C(=O)N[C@@H](CC(N)=O)C(=O)N[C@H](C(=O)N[C@@H](Cc1ccc(O)cc1)C(N)=O)[C@@H](C)O)C(C)C)[C@@H](C)O [Example 11, N-alpha-[(S)-4-Carboxy-4-(19-carboxynonadecanoylamino)butyryl]-His-His-[His1,Glu14,His17]-pramlintide] ({C20 diacid-γGlu}-HHHCNTATCATQRLAEFLHHSSNNFGPILPPTNVGSNTY-NH2; disulfide 4-9) | – | – | 87 | 92
CC[C@H](C)[C@H](NC(=O)[C@@H]1CCCN1C(=O)CNC(=O)[C@H](Cc1ccccc1)NC(=O)[C@H](CC(N)=O)NC(=O)[C@H](CC(N)=O)NC(=O)[C@H](CO)NC(=O)[C@H](CO)NC(=O)[C@H](Cc1c[nH]cn1)NC(=O)[C@H](Cc1c[nH]cn1)NC(=O)[C@H](CC(C)C)NC(=O)[C@H](Cc1ccccc1)NC(=O)[C@H](CCC(=O)O)NC(=O)[C@H](C)NC(=O)[C@H](CC(C)C)NC(=O)[C@H](CCCNC(=N)N)NC(=O)[C@H](CCC(N)=O)NC(=O)[C@@H](NC(=O)[C@H](C)NC(=O)[C@@H]1CSSC[C@H](NC(=O)[C@H](CCCCN)NC(=O)CC[C@H](NC(=O)CCCCCCCCCCCCCCCCCCC(=O)O)C(=O)O)C(=O)N[C@@H](CC(N)=O)C(=O)N[C@@H]([C@@H](C)O)C(=O)N[C@@H](C)C(=O)N[C@@H]([C@@H](C)O)C(=O)N1)[C@@H](C)O)C(=O)N[C@@H](CC(C)C)C(=O)N1CCC[C@H]1C(=O)N1CCC[C@H]1C(=O)N[C@H](C(=O)N[C@@H](CC(N)=O)C(=O)N[C@H](C(=O)NCC(=O)N[C@@H](CO)C(=O)N[C@@H](CC(N)=O)C(=O)N[C@H](C(=O)N[C@@H](Cc1ccc(O)cc1)C(N)=O)[C@@H](C)O)C(C)C)[C@@H](C)O [Example 27, N-alpha-[(S)-4-Carboxy-4-(19-carboxynonadecanoylamino)butyryl]-[Glu14,His17]-pramlintide] ({C20 diacid-γGlu}-KCNTATCATQRLAEFLHHSSNNFGPILPPTNVGSNTY-NH2; disulfide 2-7) | 56 | 53 | – | –
CC[C@H](C)[C@H](NC(=O)[C@@H]1CCCN1C(=O)CNC(=O)[C@H](Cc1ccccc1)NC(=O)[C@H](CC(N)=O)NC(=O)[C@H](CC(N)=O)NC(=O)[C@H](CO)NC(=O)[C@H](CO)NC(=O)[C@H](Cc1c[nH]cn1)NC(=O)[C@H](Cc1c[nH]cn1)NC(=O)[C@H](CC(C)C)NC(=O)[C@H](Cc1ccccc1)NC(=O)[C@H](CCC(=O)O)NC(=O)[C@H](C)NC(=O)[C@H](CC(C)C)NC(=O)[C@H](CCCNC(=N)N)NC(=O)[C@H](CCC(N)=O)NC(=O)[C@@H](NC(=O)[C@H](C)NC(=O)[C@@H]1CSSC[C@H](NC(=O)[C@H](CCCCN)NC(=O)[C@H](CCC(=O)O)NC(=O)CC[C@H](NC(=O)CCCCCCCCCCCCCCCCC(=O)O)C(=O)O)C(=O)N[C@@H](CC(N)=O)C(=O)N[C@@H]([C@@H](C)O)C(=O)N[C@@H](C)C(=O)N[C@@H]([C@@H](C)O)C(=O)N1)[C@@H](C)O)C(=O)N[C@@H](CC(C)C)C(=O)N1CCC[C@H]1C(=O)N1CCC[C@H]1C(=O)N[C@H](C(=O)N[C@@H](CC(N)=O)C(=O)N[C@H](C(=O)NCC(=O)N[C@@H](CO)C(=O)N[C@@H](CC(N)=O)C(=O)N[C@H](C(=O)N[C@@H](Cc1ccc(O)cc1)C(N)=O)[C@@H](C)O)C(C)C)[C@@H](C)O [Example 42, N-alpha-[(S)-4-Carboxy-4-(17-carboxyheptadecanoylamino)butyryl]-Glu-[Glu14, His17]-pramlintide] ({C18 diacid-γGlu}-EKCNTATCATQRLAEFLHHSSNNFGPILPPTNVGSNTY-NH2; disulfide 3-8 (inferred); C-terminus assumed) | 45 | 5 | – | –
